Experimental data published in article PMC6274251, “Design, Synthesis and Biological Evaluation of Stilbene Derivatives as Novel Inhibitors of Protein Tyrosine Phosphatase 1B” (Molecules, 2016).
“Also recorded” adds a separate entry of the source. Where two headings read alike, the source gives them in different places.

Columns and labels:
[1] = target: T1, GST-PTP1B (Homo sapiens, UniProt P18031); test: Colorimetric pNPP assay of inhibition against PTP1B; type: biochemical; details: for IC50: means ± SD of three replications, pNPP substrate, pH 6.5, 30 °C; for TCPTP/PTP1B, the ratio of IC50 of TCPTP and PTP1B: selectivity over TCPTP;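 for all read-outs here: colorimetric inhibition readout run in 96-well plates, with PTP1B and TCPTP both tested in the same assay format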
T1 sequence (P18031 1-435): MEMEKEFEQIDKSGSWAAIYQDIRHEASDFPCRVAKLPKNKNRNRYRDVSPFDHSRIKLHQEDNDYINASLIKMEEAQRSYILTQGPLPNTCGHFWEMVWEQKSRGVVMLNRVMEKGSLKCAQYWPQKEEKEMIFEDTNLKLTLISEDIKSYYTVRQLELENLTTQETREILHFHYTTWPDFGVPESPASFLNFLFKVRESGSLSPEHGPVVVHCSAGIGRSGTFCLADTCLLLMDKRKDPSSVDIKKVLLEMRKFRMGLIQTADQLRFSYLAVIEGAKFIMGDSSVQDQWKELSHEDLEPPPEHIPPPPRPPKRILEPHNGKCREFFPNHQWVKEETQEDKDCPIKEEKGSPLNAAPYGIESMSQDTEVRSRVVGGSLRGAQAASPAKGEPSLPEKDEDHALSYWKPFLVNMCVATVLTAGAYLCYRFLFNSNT
Procedure: (§1) A colorimetric assay to measure inhibition against PTP1B and TCPTP was performed in 96-well plates. […] Briefly, the tested compounds were solubilized in DMSO and serially diluted into concentrations for the inhibitory test.

[2] = target: T2, GST-TCPTP (Homo sapiens, UniProt P17706); test: Colorimetric pNPP assay of inhibition against TCPTP
T2 sequence (P17706 1-415): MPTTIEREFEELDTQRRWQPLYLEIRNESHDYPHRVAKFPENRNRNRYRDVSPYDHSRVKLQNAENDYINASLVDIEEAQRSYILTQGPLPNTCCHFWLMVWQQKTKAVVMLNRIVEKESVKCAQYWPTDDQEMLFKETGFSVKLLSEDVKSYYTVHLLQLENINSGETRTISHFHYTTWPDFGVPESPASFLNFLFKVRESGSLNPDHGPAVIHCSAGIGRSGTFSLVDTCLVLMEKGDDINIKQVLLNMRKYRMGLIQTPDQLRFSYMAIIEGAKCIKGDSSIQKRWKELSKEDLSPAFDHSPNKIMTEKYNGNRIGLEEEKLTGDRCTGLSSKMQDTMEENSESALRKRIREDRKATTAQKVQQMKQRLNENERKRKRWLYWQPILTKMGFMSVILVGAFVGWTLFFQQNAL
Procedure: as §1

[3] = target: T3, PTP1B (Homo sapiens, UniProt P18031); test: PTP1B enzyme kinetic study (Michaelis-Menten, Lineweaver-Burk plot); type: biochemical
T3 sequence (P18031 1-435): T1 sequence (P18031 1-435)

[4] = read-out: IC50 against PTP1B (Table 1)

Row | Structure (SMILES) | IC50 [1, 4] [µM] | TCPTP/PTP1B, the ratio of IC50 of TCPTP and PTP1B [1] | IC50 [2] [µM] | IC50 ([1]; read-out: IC50 PTP1B (Table 2)) [µM] | PTP1B inhibitory activity, fold higher than compound 18 ([1]; relative to compound 18) [fold] | Ki ([3]; 30 nM PTP1B, pNPP up to 80 mM, pH 6.5, read-out: inhibitory constant Ki) [µM] | mode of inhibition of PTP1B ([3]; Vmax constant, Km increased with compound concentration)
1 | O=C(O)c1cccc(/C=C/c2ccc(OCc3conc3-c3ccccc3)cc2)c1 [Compound 15, (E)-3-(4-((3-Phenylisoxazol-4-yl)methoxy)styryl)benzoic Acid] | 20.7 ± 3.83 |  |  |  |  |  | 
2 | O=C(O)c1cccc(/C=C/c2ccc(OCc3cnoc3-c3ccccc3)cc2)c1 [Compound 16, (E)-3-(4-((5-Phenylisoxazol-4-yl)methoxy)styryl)benzoic acid] | 16.2 ± 4.52 |  |  |  |  |  | 
3 | Cc1onc(-c2ccccc2)c1COc1ccc(/C=C/c2cccc(C(=O)O)c2)cc1 [Compound 17, (E)-3-(4-((5-Methyl-3-phenylisoxazol-4-yl)methoxy)styryl)benzoic acid] | 15.7 ± 2.15 |  |  |  |  |  | 
4 | O=C(O)c1cccc(/C=C/c2ccc(OCc3cc(-c4ccccc4)on3)cc2)c1 [Compound 18, (E)-3-(4-((5-Phenylisoxazol-3-yl)methoxy)styryl)benzoic acid] | 6.33 ± 1.02 | 1.5 | 9.58 ± 0.33 |  |  |  | 
5 | COC(=O)c1cccc(/C=C/c2ccc(OCc3cc(-c4ccccc4)on3)cc2)c1 [Compound 18d] | 23.7 ± 3.62 |  |  |  |  |  | 
6 | O=C(O)c1cccc(/C=C/c2ccc(OCc3cc(-c4ccccc4Cl)on3)cc2)c1 [Compound 19, (E)-3-(4-((5-(2-Chlorophenyl)isoxazol-3-yl)methoxy)styryl)benzoic acid] |  | 20.7 | 36.2 ± 3.82 | 1.75 ± 0.82 |  |  | 
7 | COc1ccccc1-c1cc(COc2ccc(/C=C/c3cccc(C(=O)O)c3)cc2)no1 [Compound 20, (E)-3-(4-((5-(2-Methoxyphenyl)isoxazol-3-yl)methoxy)styryl)benzoic acid] |  |  | > 40 | 7.66 ± 1.05 |  |  | 
8 | O=C(O)c1cccc(/C=C/c2ccc(OCc3cc(-c4cccc(Cl)c4)on3)cc2)c1 [Compound 21, (E)-3-(4-((5-(3-Chlorophenyl)isoxazol-3-yl)methoxy)styryl)benzoic acid] |  | 1.4 | 7.58 ± 1.32 | 5.37 ± 1.53 |  |  | 
9 | O=C(O)c1cccc(/C=C/c2ccc(OCc3cc(-c4cccc(F)c4)on3)cc2)c1 [Compound 22, (E)-3-(4-((5-(3-Fluorophenyl)isoxazol-3-yl)methoxy)styryl)benzoic acid] |  |  | > 40 | > 20 |  |  | 
10 | O=C(O)c1cccc(/C=C/c2ccc(OCc3cc(-c4cccc(Br)c4)on3)cc2)c1 [Compound 23, (E)-3-(4-((5-(3-Bromophenyl)isoxazol-3-yl)methoxy)styryl)benzoic acid] |  |  | > 40 | 9.85 ± 2.04 |  |  | 
11 | Cc1cccc(-c2cc(COc3ccc(/C=C/c4cccc(C(=O)O)c4)cc3)no2)c1 [Compound 24, (E)-3-(4-((5-(m-Tolyl)isoxazol-3-yl)methoxy)styryl)benzoic acid] |  | 5.1 | 18.9 ± 1.18 | 3.68 ± 1.12 |  |  | 
12 | C[C@H](CCC(=O)O)[C@H]1CC[C@H]2[C@@H]3CC[C@@H]4C[C@H](O)CC[C@]4(C)[C@H]3CC[C@]12C [Lithocholic acid, lithocholic acid, reference compound] |  | 1.7 | 20.9 ± 3.66 | 12.5 ± 2.51 |  |  | 

Continued, in another order:

Row | IC50 [1, 4] [µM] | TCPTP/PTP1B, the ratio of IC50 of TCPTP and PTP1B [1] | IC50 [2] [µM] | IC50 ([1]; read-out: IC50 PTP1B (Table 2)) [µM] | PTP1B inhibitory activity, fold higher than compound 18 ([1]; relative to compound 18) [fold] | Ki ([3]; 30 nM PTP1B, pNPP up to 80 mM, pH 6.5, read-out: inhibitory constant Ki) [µM] | Structure (SMILES) | mode of inhibition of PTP1B ([3]; Vmax constant, Km increased with compound concentration)
13 |  | 6.5 | 13.2 ± 1.7 | 2.05 ± 0.54 | 3 |  | O=C(O)c1cccc(/C=C/c2ccc(OCc3cc(-c4cccc([N+](=O)[O-])c4)on3)cc2)c1 [Compound 25, (E)-3-(4-((5-(3-Nitrophenyl)isoxazol-3-yl)methoxy)styryl)benzoic acid] | 
14 |  | 2.2 | 7.67 ± 0.35 | 3.56 ± 0.28 |  |  | Cc1ccc(-c2cc(COc3ccc(/C=C/c4cccc(C(=O)O)c4)cc3)no2)cc1 [Compound 26, (E)-3-(4-((5-(p-Tolyl)isoxazol-3-yl)methoxy)styryl)benzoic acid] | 
15 |  | 3.6 | 8.02 ± 0.99 | 2.23 ± 0.51 |  |  | COc1ccc(-c2cc(COc3ccc(/C=C/c4cccc(C(=O)O)c4)cc3)no2)cc1 [Compound 27, (E)-3-(4-((5-(4-Methoxyphenyl)isoxazol-3-yl)methoxy)styryl)benzoic acid] | 
16 |  | 1.6 | 5.19 ± 0.31 | 3.34 ± 0.81 |  |  | O=C(O)c1cccc(/C=C/c2ccc(OCc3cc(-c4ccc(F)cc4)on3)cc2)c1 [Compound 28, (E)-3-(4-((5-(4-Fluorophenyl)isoxazol-3-yl)methoxy)styryl)benzoic acid] | 
17 |  | 4.2 | 3.78 ± 0.22 | 0.91 ± 0.33 |  | 0.78 | O=C(O)c1cccc(/C=C/c2ccc(OCc3cc(-c4ccc(Cl)c(Cl)c4)on3)cc2)c1 [Compound 29, (E)-3-(4-((5-(3,4-Dichlorophenyl)isoxazol-3-yl)methoxy)styryl)benzoic acid] | competitive PTP1B inhibitor; also recorded: competitive inhibition
18 |  | 4.9 | 6.02 ± 1.13 | 1.22 ± 0.48 |  |  | O=C(O)c1cccc(/C=C/c2ccc(OCc3cc(-c4ccc(F)c(F)c4)on3)cc2)c1 [Compound 30, (E)-3-(4-((5-(3,4-Difluorophenyl)isoxazol-3-yl)methoxy)styryl)benzoic acid] | 
